Literature values in patent publication US20230102999A1, “DEUTERATED NICLOSAMIDE” (First Wave Bio, Inc., priority 2020, published 2023).
Structures can show the parent of a compound that is named as a salt.

Tests used:
[1] = at 20° C.

O=C(Nc1ccc([N+](=O)[O-])cc1Cl)c1cc(Cl)ccc1O [Niclosamide, 5-chloro-N-(2-chloro-4-nitrophenyl)-2-hydroxybenzamide]
solubility in acetone (acetone): soluble | solubility in ether, ethanol and chloroform (ether, ethanol and chloroform): sparingly soluble | water solubility ([1]; water): 5 to 8 µg/mL

O=C(Nc1ccc([N+](=O)[O-])cc1Cl)c1cc(Cl)ccc1O [ethanolamine salt, 5-chloro-salicyl-(2-chloro-4-nitro) anilide 2-aminoethanol salt]
dissolves in distilled water ([1]; distilled water): 180 to 280 mg/L
